Data as given in patent US9060985B2, “Use of rosmarinic acid and the derivatives thereof to treat ciguatera” (priority 2009, dated 2015).
In brackets after ≈: the same amount, converted by molar mass.

How the values were obtained:
[1] = test system: symptoms of ciguatera; details: cited from earlier work
[2] = test system: voltage-dependent sodium channels; format: binding, rat
[3] = test system: neuroblastoma cell cultures; test: Inhibition of the cytotoxicity caused by extracts of toxic loach or toxic giant clams on neuroblastoma cell cultures (MTT, with ouabain/veratridine); format: cell-based
Method: The sample of salmon-pink loach (Ref15), supplied by the Louis Malardé Institute, was collected at Mururoa (Tuamotu Archipelago, French Polynesia). The sample of giant clam (GPS59) was collected at Raivavae (Austral Islands, French Polynesia). The toxicity of these two samples was confirmed beforehand on mice, by a cytotoxicity assay on neuroblastomas and radioligand assays with P-CTX-3.
The samples are stored at 4° C. The rosmarinic acid was obtained from Sigma.
96-well plates are prepared with 50 000 cells in 100 μL of medium per well. The outer wells are not used, to avoid variations of response due to edge effects. The cells are incubated for 24 h at 37° C. with 5% CO2 to give them time to adhere.
A mixture of ouabain (cardiac glycoside involved in cellular permeability, inhibiting the Na/K pump) and veratridine (polycyclic alkaloid which leads to persistent activation of the sodium channels), designated O/V hereinafter, in which the two active substances are present respectively at a final concentration of 0.33 and 0.033 mM in 20 μl, is added to the wells.
Ouabain is an inhibitor of ATPase Na^+/K^+, and veratridine is an activator of the sodium channels. The combined action of these two products induces a raised intracellular level of sodium and causes a change in the morphology of the cells, which greatly reduces their viability. […]
All the plates have a standard control of culture medium (cells only) and a control with cells in the presence of the O/V mixture. Rosmarinic acid is tested alone with the O/V mixture to record effects of cytotoxicity or of cellular proliferation as well as any interferences of coloration due to strong concentrations of products, which can lead to false positives in spectrophotometer readings. […]
After incubation for 1.5 h, the formazan crystals that formed are dissolved with 150 μL of DMSO (dimethylsulfoxide) for each well. After homogenization, the plates are read with a UV plate reader at 490 nm. Then the data are transferred and processed using Excel® and analyzed with the GraphPad Prism® software (version 4).

[4] = test system: mouse; details: cited from earlier work
[5] = test system: ciguatoxins; details: cited from earlier work

OC[C@@H](O)[C@@H](O)[C@H](O)[C@H](O)CO [mannitol, Mannitol]
effect on neurological and muscular disorders ([1]; administered 48 to 72 hours after intoxication): capable of alleviating neurological and muscular disorders
effect on the symptoms of ciguatera ([1]; blind clinical trials, mannitol and a saline solution, after 24 hours): did not, however, show a beneficial effect

O=C(/C=C/c1ccc(O)c(O)c1)O[C@H](Cc1ccc(O)c(O)c1)C(=O)O [rosmarinic acid, (R)-a-[[3-(3,4-dihydroxyphenyl)-1-oxo-2E-propenyl]oxy]-3,4-dihydroxybenzenepropanoic acid]
IC50 (50% inhibition of interaction with [^3H]PbTx-3) [2]: 880 µg/mL
Ki [2]: 1430 µM
measured radioactivity (replacement of tritiated brevetoxin on the sodium channels) [2]: decrease in the measured radioactivity
IC50 ([3]; Neuroblastoma cell, neuroblastomas, toxic extracts, estimated, read-out: IC50 (concentration for 50% decrease in cellular mortality caused by ciguatoxins and associated toxins)): 500 to 1000 µg/mL (≈ 1390 to 2780 µM)
concentration from which cellular viability is significantly increased ([3]; toxic giant clam extract GPS59 at 100 μg/ml, O/V mixture): ≥ 50 µg/mL
effect on cellular viability of neuroblastomas (cytotoxicity of toxic giant clam extract) ([3]; toxic giant clam extract GPS59 at 100 μg/ml, O/V mixture, rosmarinic acid 10 to 1000 μg/ml, 18 h, MTT): protective effect
toxicity ([4]; at 531 mg/kg i.v. in the mouse): does not display toxicity
LD50 ([4]; intravenously (i.v.) in the mouse): 531 mg/kg

C=C/C=C\CC[C@H]1O[C@H]2CC[C@@]3(C)O[C@H]4[C@@H](O)C[C@@]5(C)O[C@@H](CC/C=C(C)/C(C)=C/C=O)[C@@H](C)C[C@@H]5O[C@@H]4C[C@@H]3O[C@@H]2CC[C@@]1(C)O [brevenal]
inhibition of neurotoxic effects induced by the ciguatoxins [5]: powerful inhibitor
